Here are results for four molecules from patent publication US9751826B2, “4-vinyl-2-cyclopenten-1-one derivatives, the production thereof, and the use of same as an antibiotic agent” (Centre National de la Recherche Scientifique (CNRS), priority 2014, dated 2017).

Common to all, as to assay type: cell-based
Series [1] relates to various target pathogenic microorganisms. The experiment in a line: Antibiotic activity at 1 to 100 μg (FIG. 7). The note with it: amounts of 1 to 100 μg. As for the experimental part:
(§1) The molecule of the compound of formula (Ia) was used in antibiotic tests, employing the inhibition zone technique, on various Gram-positive and Gram-negative bacteria, in the amount of 100 μg. In parallel, similar tests are carried out with control antibiotics in varying amounts depending on the antibiotic, either 10 μg or 30 μg.
FIG. 7 illustrates the antibiotic activity of the compound of formula (Ia) on various target pathogenic microorganisms in amounts of 1 to 100 μg in comparison with chloramphenicol and gentamycin at 30 μg and 10 μg, respectively. […] Indeed, inhibition by 1 μg of the compound of formula (Ia) is equivalent to that obtained with 30 μg of chloramphenicol. The same observations and conclusions can be made for all the strains that are sensitive to the compound of formula (Ia) as shown in FIG. 7.

In a further series the test system is MRC5 cells. The series can be described thus: Cytotoxicity test on non-cancerous MRC5 cells. As for the experimental part: (§2) Once purified, the molecule of the compound of formula (Ia) is redissolved in suitable solvents and at a suitable concentration, preferentially in dimethyl sulfoxide (DMSO) at a concentration of 10 mg/ml. This initial solution is then diluted according to the various biological tests to be performed. Two series of tests were carried out. Tests for cytotoxicity on a KB cancer cell line (carcinoma) and an equivalent line of non-cancerous MRC5 cells. The following table presents the percentage of inhibition of growth by the molecule of the compound of formula (Ia) at concentrations of 1 and 10 micromolar.

The test system of series [2] is Acinetobacter baumannii (ATCC 19606). The experiment in a line: Antibiotic test, inhibition zone technique. As to the method: as §1, with “Once purified, the molecule of the compound of formula (Ia) is redissolved in suitable solvents and at a suitable concentration, preferentially in dimethyl sulfoxide (DMSO) at a concentration of 10 mg/ml. This initial solution is then diluted according to the various biological tests to be performed. Two series of tests were carried out. The” for “The”

Series [3] concerns Bacillus subtilis (ATCC 6633). The experiment in a line: Antibiotic test, inhibition zone technique. As for the experimental part:
as §1, with “Once purified, the molecule of the compound of formula (Ia) is redissolved in suitable solvents and at a suitable concentration, preferentially in dimethyl sulfoxide (DMSO) at a concentration of 10 mg/ml. This initial solution is then diluted according to the various biological tests to be performed. Two series of tests were carried out. The” for “The”

The subject of series [4] is Staphylococcus aureus (ATCC 25923). The series can be described thus: Antibiotic test, inhibition zone technique. As to the method: as §1, with “Once purified, the molecule of the compound of formula (Ia) is redissolved in suitable solvents and at a suitable concentration, preferentially in dimethyl sulfoxide (DMSO) at a concentration of 10 mg/ml. This initial solution is then diluted according to the various biological tests to be performed. Two series of tests were carried out. The” for “The”

Series [5] has as its system Micrococcus luteus (ATCC 10240). The series can be described thus: Antibiotic test, inhibition zone technique. As to the method: as §1, with “Once purified, the molecule of the compound of formula (Ia) is redissolved in suitable solvents and at a suitable concentration, preferentially in dimethyl sulfoxide (DMSO) at a concentration of 10 mg/ml. This initial solution is then diluted according to the various biological tests to be performed. Two series of tests were carried out. The” for “The”

The subject of series [6] is Streptococcus pneumoniae (ATCC 49619). The series can be described thus: Antibiotic test, inhibition zone technique. As for the experimental part: as §1, with “Once purified, the molecule of the compound of formula (Ia) is redissolved in suitable solvents and at a suitable concentration, preferentially in dimethyl sulfoxide (DMSO) at a concentration of 10 mg/ml. This initial solution is then diluted according to the various biological tests to be performed. Two series of tests were carried out. The” for “The”

The subject of series [7] is Escherichia coli (ATCC 25922). The series can be described thus: Antibiotic test, inhibition zone technique. As for the experimental part: as §1, with “Once purified, the molecule of the compound of formula (Ia) is redissolved in suitable solvents and at a suitable concentration, preferentially in dimethyl sulfoxide (DMSO) at a concentration of 10 mg/ml. This initial solution is then diluted according to the various biological tests to be performed. Two series of tests were carried out. The” for “The”

Series [8] concerns Klebsiella pneumoniae (ATCC 1001). The experiment in a line: Antibiotic test, inhibition zone technique. As to the method: as §1, with “Once purified, the molecule of the compound of formula (Ia) is redissolved in suitable solvents and at a suitable concentration, preferentially in dimethyl sulfoxide (DMSO) at a concentration of 10 mg/ml. This initial solution is then diluted according to the various biological tests to be performed. Two series of tests were carried out. The” for “The”

Series [9] relates to Enterobacter cloacae (ATCC 13047). The series can be described thus: Antibiotic test, inhibition zone technique. As for the experimental part: as §1, with “Once purified, the molecule of the compound of formula (Ia) is redissolved in suitable solvents and at a suitable concentration, preferentially in dimethyl sulfoxide (DMSO) at a concentration of 10 mg/ml. This initial solution is then diluted according to the various biological tests to be performed. Two series of tests were carried out. The” for “The”

Series [10] deals with KB cancer cell line (carcinoma). The experiment in a line: Cytotoxicity test on KB cancer cell line. As for the experimental part:
as §2

In series [11] the test system is Pseudomonas aeruginosa (ATCC 27853). The experiment in a line: Antibiotic test, inhibition zone technique. The settings on record: 10 μg deposited. As for the experimental part: as §1, with “Once purified, the molecule of the compound of formula (Ia) is redissolved in suitable solvents and at a suitable concentration, preferentially in dimethyl sulfoxide (DMSO) at a concentration of 10 mg/ml. This initial solution is then diluted according to the various biological tests to be performed. Two series of tests were carried out. The” for “The”

The inhibition is the percentage by which the read-out fell short of the control.

Turning to `COC(=O)/C=C/[C@@]1(O)C=CC(=O)C1` [compound of formula (Ia)], the “dose dependence of antibiotic activity” value in [1] is “dose-dependent”. For the same molecule, in the series on MRC5 cells (1 and 10 micromolar), the “cytotoxicity against healthy cells” value is recorded as “no cytotoxicity is observed”. The inhibition at 10 µM with MRC5 cells (Homo sapiens, 10^−5 M, read-out: percentage of inhibition of growth) amounted to 2 ± 12%; in series [10] (Homo sapiens, KB cells, 10^−5 M, read-out: percentage of inhibition of growth), 0%. For the same molecule, the inhibition at 1 µM turned out to be 1 ± 3% with MRC5 cells (Homo sapiens, 10^−6 M, read-out: percentage of inhibition of growth) and 0% in series [10] (Homo sapiens, KB cells, 10^−6 M, read-out: percentage of inhibition of growth). The “Inhibition zone for 100 μg of the compound of formula (Ia)” value in [2] (100 μg deposited) is 3.2 cm; in [3] (100 μg deposited) it was 2.7 cm; in series [4] (100 μg deposited), 3.0 cm; in series [5] (100 μg deposited) it was 3.2 cm; in [6] (100 μg deposited) it was 2.0 cm; in series [7] (100 μg deposited), 2.7 cm. Also, the “Inhibition zone for 100 μg of the compound of formula (Ia)” value was found to be 2.9 cm in series [8] (100 μg deposited) and 1.2 cm in [9] (100 μg deposited). Further, the “amount giving inhibition equivalent to that of 30 μg of chloramphenicol” value in [7] (FIG. 7) worked out at 1 µg. Besides, the “antibiotic activity compared with chloramphenicol” value in series [7] (FIG. 7, 1 to 100 μg vs chloramphenicol 30 μg) is “much higher activity than that of chloramphenicol”. In addition, the “cytotoxicity against tumor cells” value in series [10] (1 and 10 micromolar) was “no cytotoxicity is observed”.

Consider Penicillin [reference compound], for which the “Inhibition zone by the reference antibiotics” value in series [6] (30 μg deposited) was 3.5 cm.

In the case of Gentamycin [reference compound], the “Inhibition zone by the reference antibiotics” value in series [2] (10 μg deposited) was determined as 0.9 cm; in series [3] (10 μg deposited) it was 1.2 cm; in series [4] (10 μg deposited) it was 1.2 cm; in series [11] it was 1.3 cm.

On to `O=C(N[C@H](CO)[C@H](O)c1ccc([N+](=O)[O-])cc1)C(Cl)Cl` [Chloramphenicol, reference compound], for which the “Inhibition zone by the reference antibiotics” value in series [5] (30 μg deposited) stood at 3.2 cm; in series [7] (30 μg deposited), 1.0 cm; in series [8] (30 μg deposited) it was 2.5 cm; in [9] (30 μg deposited), 1.5 cm.
